From patent US4294833A, “Substituted 4-hydroxy-isophthalic acid picolylamides having a pharmaceutical activity in thromboembolic disorders” (Societa Italo-Britannica, priority 1977, dated 1981)

What was measured:
[1] = Acute toxicity, intraperitoneal; settings: mouse, in vivo, ip, male Swiss mice, intraperitoneal, 7 days observation; preliminary, by graphic interpolation; read-out: acute toxicity (LD50 / DL50)
Experimental: The acute toxicity limit was determined intraperitoneally on male Swiss mice, weighing 20±2 g, held fasting for 18 hours with water ad libitum.
The animals were maintained under observation for 7 days of treatment, by examining the general symptomatology and noting the death sequency. The preliminary DL50 in mg/kg body weight was calculated by graphic interpolation of the results as obtained.
(§1) In tables I and II are further indicated for each compound the method of preparation; the melting point PF in °C; the platelet antiaggregant activity (AAP) expressed in terms of DI50 in mg/kg, referred to ADP and thrombin respectively; the antithrombin activity (AT) in %; the anticoagulant activity (AC) in %; the fibrinolytic activity (FL) in %; the acute toxicity (LD50) in mice, intraperitoneally, in mg/kg, as previously defined.

[2] = system: CaCl2-induced plasma coagulation; assay: Anticoagulant activity on PRP, Hartert's thromboelastograph; assay type: in vivo, New Zealand rabbits; settings: Oryctolagus cuniculus, ip, percent increase of total time for coagulum formation (r+k) vs before treatment; 25 mg/kg intraperitoneal, rabbits; read-out: anticoagulant activity (AC)
Experimental: Determination of the anticoagulant activity
The anticoagulant activity was also assessed on PRP of animals treated as described in the preceding methods, by using again Hartert's thromboelastograph method.
The plasma coagulation was induced by adding to 0.25 ml PRP a 1.29% solution of CaCl2.
The anticoagulant effect was determined as a percent increase of the total time for the coagulum formation (the index r+k can be obtained from the thromboelastograph diagram) in a plasma after treatment, referred to the same index obtained before the treatment (control). Again the dose level was 25 mg/kg for each compound under examination, intraperitoneally.
as §1

[3] = system: thrombin-induced coagulation of platelet rich plasma; assay: Antithrombin activity on PRP, Hartert's thromboelastograph; assay type: in vivo, New Zealand rabbits; settings: Oryctolagus cuniculus, Platelet, ip, percent decrease of index ma/[r+k] vs before treatment; 20 mg/kg intraperitoneal, rabbits
Experimental: Determination of the antithrombin activity
The antithrombin activity on the PRP (platelet rich plasma) obtained following the above described method was assessed by Hartert's thromboelastograph (Hellige model). The coagulation was induced by adding to 0.25 ml of plasma 0.06 ml of a thrombin solution (Roche Topostasin® per os) at 60 units*, pH 7.4**. The antithrombin activity was assessed in terms of a percent decrease of the index (ma/[r+k]) which was calculated from the thromboelastograph diagram, wherein r is the reaction time, k is the speed of the coagulum formation and ma is the maximum spread of the tong, after an intraperitoneal treatment with a dose of 20 mg/kg of each compound under examination, referred to the same index obtained before the treatment (control).
as §1

[4] = system: platelet aggregation induced by thrombin; assay: Platelet aggregation inhibitory activity in vivo (Born aggregometer), thrombin-induced; parameters: species or system New Zealand rabbits; settings: Oryctolagus cuniculus, Platelet, ip, dose for 50% inhibition of thrombin-induced aggregation curve; rabbits, intraperitoneal, blood 2, 4 and 6 hours after injection; read-out: platelet antiaggregant activity (AAP), DI50, Thrombin
Experimental: (§2) Determination of the platelet aggregation inhibitory activity in vivo
(§3) The activity of the above described compounds as platelet antiaggregant was tested in vivo on rabbits, by the Born aggregometer. The inhibition of the aggregation curve induced by ADP and thrombin was assessed with different drug concentrations according to the platelet reactivity. New Zealand rabbits which had been held fasting for 12 hours with water ad libitum, were anaesthetized with Nembutal in a dose of 35 mg/kg intramuscolarly. The blood was withdrawn from the carotidal arthery, before (control) and 2, 4, and 6 hours after the intraperitoneal injection of the compounds under examination (at the dose indicated below). The blood samples were taken up in a 3.8% aqueous solution of sodium citrate in a ratio 10:1 and thereupon centrifuged at 1500 r.p.m. for 10 minutes, for obtaining a PRP (platelet rich plasma). A portion of such a plasma was thereupon centrifuged at 8000 r.p.m. for 10 minutes, for obtaining a PPP (platelet lean plasma) which was used for zeroing the measuring apparatus.
(§4) From the results of said experiments, there was determined the dose of each product in mg/kg body weight able to induce a 50% inhibition of the aggregation curve (DI50) after treatment, referred to the curve obtained by the same control plasma before treatment.
as §1

[5] = system: platelet aggregation induced by ADP; assay: Platelet aggregation inhibitory activity in vivo (Born aggregometer), ADP-induced; parameters: species or system New Zealand rabbits; settings: Oryctolagus cuniculus, Platelet, ip, dose for 50% inhibition of ADP-induced aggregation curve; rabbits, intraperitoneal, blood 2, 4 and 6 hours after injection; read-out: platelet antiaggregant activity (AAP), DI50, ADP
Experimental: as §2, §3, §4, §1

[6] = system: blood coagulum; assay: Fibrinolytic activity, Fearnley method (lysis of blood coagulum in toto); assay type: in vivo; settings: Oryctolagus cuniculus, ip, 0.5 h, percent decrease of coagulum weight after 30 minutes at 37° C.; 25 mg/kg intraperitoneal, rabbits; read-out: fibrinolytic activity (FL)
Experimental: Determination of the fibrinolytic activity
The determination of the fibrinolytic activity was made following the Fearnley method for the lysis of the blood coagulum in toto.
0.2 ml of blood were withdrawn from the marginal vein of the ear of rabbits treated in the same way as the previously described tests, before and after an intraperitoneal injection of the compounds under test at a dose level of 25 mg/kg for each compound.
The blood samples were placed in test tubes containing 1.7 ml of phosphate buffer at pH 7.4 and 0.1 ml of thrombin (Roche Topostasin ® per os) at 50 units NIH/ml, and maintained in an ice bath. The test tubes were maintained at said temperature for 30 minutes and thereupon were transferred to a temperature controlled water bath at 37° C.
The fibrinolytic activity was determined as a percent decrease of the coagulum weight, measured after incubation for 30 minutes at 37° C.
as §1

Structure (SMILES) | LD50 at 168 h [1] [mg/kg] | change in vivo at 25 mg/kg [2] [%] | inhibition in vivo at 20 mg/kg [3] [%] | ED50 [4] [mg/kg] | ED50 [5] [mg/kg] | fibrinolytic activity (percent decrease of coagulum weight) at 25 mg/kg [6] [%]
O=C(NCc1ccncc1)c1ccc(O)c(C(=O)NCc2ccncc2)c1 [Example 57] | 661 | 19 | 38.4 | 19.2 | 26 | 32.1
COc1ccc(C(=O)N(Cc2cccnc2)C(C)C)cc1C(=O)N(Cc1cccnc1)C(C)C [Example 43] | 478 | 20.7 | 39.4 | 20.6 | 27.3 | 33.6
O=C(NCc1cccnc1)c1cc(C(=O)NCc2cccnc2)c(O)c([N+](=O)[O-])c1 [Example 31] | 345 | 13.6 | 23.1 | 27 | 36.6 | 20.5
CC(C)CCOc1ccc(C(=O)NCc2cccnc2)cc1C(=O)NCc1cccnc1 [Example 13] | 173 | 24.5 | 28.5 | 27.1 | 48.3 | 21.9
C=CCCCOc1ccc(C(=O)NCc2cccnc2)cc1C(=O)NCc1cccnc1 [Example 9] | 375 | 14.5 | 49.9 | 23.2 | 36.2 | 40.3
CC=COc1c(Cl)cc(C(=O)N(CCC(C)C)Cc2cccnc2)cc1C(=O)N(CCC(C)C)Cc1cccnc1 [Example 49] | 193 | 15.3 | 27.9 | 30.2 | 49 | 21.7
CCCCCCOc1ccc(C(=O)NCc2ccncc2)cc1C(=O)NCc1ccncc1 [Example 60] | 206 | 22.2 | 48.6 | 17.5 | 20.3 | 38.5
CC=CCOc1ccc(C(=O)N(C)Cc2ccncc2)cc1C(=O)N(C)Cc1ccncc1 [Example 69] | 210 | 14.2 | 48.7 | 19.3 | 26.1 | 41.6
CC=COc1c(Cl)cc(C(=O)N(Cc2cccnc2)CC(C)(C)C)cc1C(=O)N(Cc1cccnc1)CC(C)(C)C [Example 48] | 207 | 14.4 | 27.6 | 31.9 | 50.3 | 20.1
C#CCOc1ccc(C(=O)NCc2cccnc2)cc1C(=O)NCc1cccnc1 [Example 22] | 382 | 13.6 | 33.1 | 24.4 | 36.5 | 29.2
CCC(CC)Oc1c(Cl)cc(C(=O)NCc2cccnc2)cc1C(=O)NCc1cccnc1 [Example 30] | 198 | 22.3 | 27.9 | 29.5 | 42.2 | 25.8
COc1cc(C(=O)NCc2cccnc2)cc(C(=O)NCc2cccnc2)c1OC1CCCC1 [Example 20] | 375 | 12.9 | 32.6 | 21.4 | 35.6 | 27.9
CCC(C)(C)Oc1c(Cl)cc(C(=O)NCc2cccnc2)cc1C(=O)NCc1cccnc1 [Example 29] | 206 | 20 | 27.3 | 30.7 | 44.1 | 24.1
CCOc1ccc(C(=O)N(CCC(C)C)Cc2cccnc2)cc1C(=O)N(CCC(C)C)Cc1cccnc1 [Example 45] | 460 | 16.3 | 35.8 | 22.3 | 30.6 | 29.9
CC=COc1c(Cl)cc(C(=O)N(Cc2cccnc2)C(C)(C)CC)cc1C(=O)N(Cc1cccnc1)C(C)(C)CC [Example 47] | 210 | 12.8 | 25.6 | 36.2 | 55.8 | 19.5
C=CC(C)Oc1ccc(C(=O)NCc2ccncc2)cc1C(=O)NCc1ccncc1 (stereo not drawn) [Example 64] | 360 | 19.2 | 45.9 | 24 | 35.1 | 33.6
CCC(C)Oc1ccc(C(=O)NCc2cccnc2)cc1C(=O)NCc1cccnc1 (stereo not drawn) [Example 14] | 227 | 22.3 | 38.1 | 29.7 | 46.4 | 22.5
CC(C)CCOc1ccc(C(=O)NCc2ccncc2)cc1C(=O)NCc1ccncc1 [Example 63] | 185 | 22.6 | 29.2 | 28.4 | 42.9 | 23.2
C=CCOc1c(C(=O)NCc2cccnc2)cc(C(=O)NCc2cccnc2)cc1[N+](=O)[O-] [Example 36] | 267 | 11.9 | 23 | 27.1 | 36.3 | 19.1
CCCCN(Cc1cccnc1)C(=O)c1ccc(OC)c(C(=O)N(CCCC)Cc2cccnc2)c1 [Example 42] | 623 | 14.5 | 28.7 | 47.2 | 66.4 | 21.7
CC=COc1c(Cl)cc(C(=O)N(Cc2cccnc2)C(CC)CC)cc1C(=O)N(Cc1cccnc1)C(CC)CC [Example 50] | 198 | 13.8 | 27.6 | 33.8 | 52.2 | 24.6
